Experimental data taken from patent US10351915B2 (Berg LLC, priority 2009, dated 2019).

What was measured:
[1] = system: SCC cells; test: Real-time PCR Heat Shock Protein Array; format: cell-based
Excerpt: The control cells were untreated cells.
Heat Shock Arrays were run for SCC cells and the data of regulated genes is summarized below in Table 13.

[2] = system: HDFa cells; test: Oxygen consumption rate (OCR), SeaHorse XF analyzer; format: cell-based, human; details: normal cells (HDFa)
Excerpt: (SeaHorse Biosciences Inc, North Billerica, Mass.).
In this experiment, the OCR and extracellular acidification rate (ECAR) in normal cells lines were obtained in the presence and absence of CoQ10 to determine baseline values. It was observed that in its native nutrient environment, the basal OCR rates in normal cells lines are different, and are usually a function of the physiological roles of the cells in the body.
FIGS. 37 and 38 below describes the OCR in HDFa and HASMC cells grown in physiologically normal glucose (about 4.6 mM) and high glucose (hyperglycemic) conditions.

[3] = system: Lactate Dehydrogenase (LDH); test: Western blot, Lactate Dehydrogenase levels; format: cell-based, human
Procedure: In this experiment, the cells were additionally treated with either 5 mM glucose (“5G”) or 22 mM glucose (“22G”). The samples derived from the cells were processed and run on a 4-12% Bis-Tris Novex NuPAGE gel as described above. The gels were run, transferred and stained essentially as described above.
After transfer each blot was dried for 15-20 minutes, activated with methanol for 5 seconds, washed with water for 5 minutes, and TBST for 15 minutes. The blots were blocked for 1 hour with 5% blocking reagent in TBS-T at room temperature and then washed 3 times with TBS-T (1×-15′; 2×5′ each) and probed with the primary antibody for Lactate Dehydrogenase (abcam ab2101; polyclonal) in 5% BSA (at 1:1000 dilutions) by incubation overnight at 4 deg C. with shaking. After the overnight incubation with primary antibody for Lactate Dehydrogenase, the blots were washed 3 times with TBS-T (1×-15′; 2×5′ each) and probed with the secondary antibody (rabbit antigoat; 1:10,000 dilution) for 1 h at room temperature. After 1 h of incubation with secondary antibodies, the blots were washed 3 times with TBS-T (1×-15′; 2×5′ each) and then incubated with ECF reagent for 5 mins and then each blot scanned with 5100 Fuji Laser scanner at 25 uM resolution, 16 bit, green laser, at 400V and at 500 V.
In this experiment, the cells were additionally treated with either 5 mM glucose (“5G”) or 22 mM glucose (“22G”). The samples derived from the cells were processed and the gels were run, transferred, stained and scanned essentially as described above.
The levels of LDH and PDH were determined by probing the blots successively with primary antibodies for LDH and PDH, essentially as described above.
The above blots were stripped by incubating for 30 minutes with methanol, followed by two 10 minute washes with TBS-T, then 30 minutes of incubation with Stripping buffer at 50 deg C., and followed by two washes with 100 ml or more of TBS-T for 30′ each. The blots were scanned in laser scanner to check for complete stripping. […]

In the case of `COC1=C(OC)C(=O)C(C/C=C(\C)CC/C=C(\C)CC/C=C(\C)CC/C=C(\C)CC/C=C(\C)CC/C=C(\C)CC/C=C(\C)CC/C=C(\C)CC/C=C(\C)CCC=C(C)C)=C(C)C1=O` [Q10, Coenzyme Q10], the “DNAJA1 Regulation” value ([1]; 100 μM Q10, at 6 hours) is reported as “Up regulated at 6”, the “DNAJB5 Regulation” value ([1]; 100 μM Q10, at 6 hours) is reported as “Down regulated” and the “DNAJB13 Regulation” value ([1]; 100 μM Q10, at 6 hours) is reported as “Down regulated”. For the same molecule, the “DNAJC4 Regulation” value ([1]; 100 μM Q10, at 6 hours) was “Down regulated”, the “DNAJC5B Regulation” value ([1]; 100 μM Q10, at 6 hours) was “Down regulated” and the “DNAJC12 Regulation” value ([1]; 100 μM Q10, at 6 hours) was “Down regulated”. The “HSPA8 Regulation” value ([1]; 100 μM Q10, at 6 hours) was “Up regulated at 6”, the “HSPH1 Regulation” value ([1]; 100 μM Q10, at 6 hours) was “Up regulated at 6” and the “CCT6B Regulation” value ([1]; 100 μM Q10, at 24 hours) was “Down regulated”. The OCR [2] was “influenced OCR”, the “Lactate Dehydrogenase Normalized Volume (24 h)” value ([3]; HepG2, 5g glucose, 24 h, amount 50) was 7900 and the LDH expression ([3]; cancer) was “reduced”. For the same molecule, the LDH expression ([3]; normal cells) was “minimal effect”.
